Experimental data: patent US20260297679A1, “ASSAYS FOR MONITORING INHIBITION OF RNA HELICASE DHX9” (ACCENT THERAPEUTICS, INC., priority 2023, published 2026)

Experiments:
[1] = tested on: LS411N tumors; test: Intra-tumoral human circBRIP1 analysis, LS411N xenograft; type: in vivo, human xenograft in female BALB/c nude mice; conditions: 30, 100, 200 and 300 mg/kg BID oral, 21 days, 12 hours post last dose; FIG. 4A
Procedure: This study was conducted to evaluate pharmacodynamics (PD) and pharmacokinetics (PK) of intra-tumoral circular BRIP1 with efficacy of a DHX9 inhibitor (Compound 1, as shown in Table 1).
In vivo Efficacy Study: Experiments were performed in female BALB/c nude mice (GenPharmatech Co.). Animals were allowed to acclimate for 7 days before the study. The general health of the animals were evaluated by a veterinarian, and complete health checks were performed prior to the study. […] Animals were housed in polycarbonate cage which is the size of 300×180×150 mm^3 and in an environmentally monitored, well-ventilated room maintained at a temperature of (23±3° C.) and a relative humidity of 40% 70%. […]
The LS411N (ATCC; CRL-2159) tumor cell lines were maintained in vitro as monolayer in RPMI 1640 medium supplemented with 10% heat inactivated FBS, at 37° C. in an atmosphere of 5% CO2 in air. The tumor cells were sub-cultured, not exceeding 4-5 passages, and cells growing in an exponential growth phase were harvested and counted for tumor inoculation. […]
(§1) Data analysis was performed by using the QuantStudio Thermocycler software to determine threshold Ct values. ΔCt for circBRIP1 or linBRIP1 is calculated by normalizing the target gene Ct to the GAPDH housekeeping gene Ct for each sample. The inhibition activity is calculated by the following formula, whereas: […]

[2] = tested on: human PBMC; test: circular and linear BRIP1 mRNA in fresh human PBMC (whole blood treated) by qPCR; type: cell-based; conditions: 24 hours, varying concentrations, FIGS. 9A-9D
Procedure: This study was conducted to evaluate the circular format of BRIP1 mRNA in fresh human PBMC cells by qPCR.
Human whole blood was obtained from Research Blood Components. Blood of each donor was aliquoted into vacutainer tubes containing Acid Citrate Dextrose (ACD).
Test compounds were prepared in DMSO stock solution and serially diluted. Compound (0.1% final DMSO concentration) was added to vacutainer tubes containing human whole blood. Tubes were placed in tube rotator and incubated at 37 C for 24 hours.
PBMCs were isolated from human whole blood after compound treatment by density gradient centrifugation using Ficoll-Paque Plus. RNA was extracted from PBMCs using RNeasy Plus Kits according to the manufacturer's (Qiagen) protocol. cDNA was reverse transcribed using RT^2 First Strand Kit according to the manufacturer's (Qiagen) protocol. […]
as §1, with “linBRIP1 was” for “linBRIP1 is”, “activity was” for “activity is”

[3] = Intra-tumoral pharmacokinetics bioanalytical assay; type: in vivo, female BALB/c nude mice; conditions: BID oral, 21 days; four parameter non-linear regression; FIG. 4C
Procedure: Intra-tumoral Pharmacokinetics Bioanalytical Assay: Tumors were collected at 1 h and 12 h post the last dose and cut into 3 pieces. One piece of the tumor was weighted and snap frozen for drug exposure analysis. On the assay day, 3 volumes of H2O were added to the tumor tissue (3 mL to each gram of tissue), and homogenate at 4 degrees Celsius. The homogenate (30 μL) was mixed with 15 μL blank solution, then extracted and protein precipitation with 200 μL of acetonitrile containing IS (internal standard, dexamethasone). After vortexed for 30 s, the samples were centrifuged at 4 degrees Celsius, 3900 rpm for 15 minutes. The supernatant was diluted 3 times with water and 2 μL of diluted supernatant was injected into the LC/MS/MS system for quantitative analysis (AB API 5500). The Q1 to Q3 mass transition (m/z, Da) were 393.11 to 373.10 for dexamethasone and 421.98 to 202.30 for test compound. […]
The concentration in the homogenate was quantified using standards prepared in control tumor tissues with concentrations range 0.5, 1, 2, 5, 10, 50, 100, 500, 1000 ng/mL. The determined concentration in the tumor homogenate was then back calculated to that in tumor tissue by multiplying with a dilution factor of 4.

## Cc1cccnc1-c1csc(C(=O)Nc2cc(Cl)cc(NS(C)(=O)=O)c2)c1 [Compound 1, N-(3-chloro-5-methanesulfonamidophenyl)-4-(3-methylpyridin-2-yl)thiophene-2-carboxamide]
[1]
  intra-tumoral circBRIP1 induction: Dose-dependent intra-tumoral circBRIP1 induction was observed
[2]
  human circBRIP1 in PBMCs of donor blood: induced the presence of human circBRIP1 in a dose-responsive manner
  linear BRIP1 in PBMCs of donor blood: not significantly changed
[3]
  correlation of tumor drug exposure to circBRIP1 induction: correlate to circBRIP1 induction
